Laboratory results as given in patent US9085587B2, “Inhibitors of hepatitis C virus” (priority 2010, dated 2015).
Read-outs that look alike come from different tables or passages of the source.

Tests used:
Assay type in all cases: cell-based
[1] = tested on: HCV 1b replication (bicistronic genotype 1b replicon in Huh 7 cells); assay: HCV 1b replicon assay (1b_Huh-Luc/Neo-ET cell line, luciferase readout); conditions: Hepatitis C virus, Huh-7
Method: Biological activity of the compounds of the invention was determined using an HCV replicon assay. The 1b_Huh-Luc/Neo-ET cell line persistently expressing a bicistronic genotype 1b replicon in Huh 7 cells was obtained from ReBLikon GMBH. This cell line was used to test compound inhibition using luciferase enzyme activity readout as a measurement of compound inhibition of replicon levels.
On Day 1 (the day after plating), each compound was added in triplicate to the cells. Plates were incubated for 72 hours prior to running the luciferase assay. Enzyme activity was measured using a Bright-Glo Kit (cat. number E2620) manufactured by Promega Corporation. The following equation was used to generate a percent control value for each compound. % Control=(Average Compound Value/Average Control)*100
The EC50 value was determined using GraphPad Prism and the following equation: Y=Bottom+(Top-Bottom)/(1+10^((Log IC50−X)*HillSlope))
EC50 values of compounds were repeated several times in the replicon assay.

[2] = biological target: T1, HCV NS5B C316Y mutant (Hepatitis C virus genotype 1b, UniProt Q9WMX2, C2735Y); assay: Activity against HCV NS5B C316Y mutant; conditions: for EC50: read-out: Inhibiton of HCV NS5B C316Y mutant
T1 construct: HCV NS5B C316Y or S365A mutant as indicated; expressed in transfected cells
Method: (§1) The biological activity against HCV 1b, 1a, or 2a is indicated as being *, **, ***, or ****, which corresponds to EC50 ranges of EC50>1000 nM, 100 nM<EC50≦1000 nM, 10 nM<EC50≦100 nM, or EC50≦10 nM, respectively. The biological activity against HCV NS5B C316Y or S365A mutant is indicated as being †, ††, or \\\, which corresponds to EC50 ranges of EC50>1000 nM, 200 nM<EC50≦1000 nM, […], respectively.

[3] = biological target: T2, HCV NS5B S365A mutant (Hepatitis C virus genotype 1b, UniProt Q9WMX2, S2784A); assay: Activity against HCV NS5B S365A mutant; conditions: for EC50: read-out: Inhibiton of HCV NS5B S365A mutant
T2 construct: HCV NS5B C316Y or S365A mutant as indicated; expressed in transfected cells
Method: as §1

[4] = tested on: HCV 2a; assay: HCV 2a replicon assay (similar to the 1b replicon assay); conditions: Hepatitis C virus; cell marked (HCV genotype 2a replicon); read-out: Inhibition of HCV genotype 2a replicon
Method: (§2) Compounds of the invention can inhibit multiple genotypes of HCV selected but not limited to 1a, 1b, 2a, 3a, and 4a. The EC50s are measured in the corresponding replicon assays that are similar to HCV 1b replicon assay as described above.
as §1

[5] = tested on: HCV 1a; assay: HCV 1a replicon assay (similar to the 1b replicon assay); conditions: Hepatitis C virus; cell marked (HCV genotype 1a replicon); read-out: Inhibition of HCV genotype 1a replicon
Method: as §2, §1

[6] = numeric EC50, genotype 1b replicon, read-out: Inhibition of HCV genotype 1b replicon (EC50)
[7] = 1b_Huh-Luc/Neo-ET cell line, 72 hours, luciferase readout, read-out: EC50, concentration effective to produce a half-maximal inhibition of HCV 1b replication
[8] = class symbols, genotype 1b replicon, read-out: Inhibition of HCV genotype 1b replicon

T2 sequence (Q9WMX2 2420-3010 S2784A): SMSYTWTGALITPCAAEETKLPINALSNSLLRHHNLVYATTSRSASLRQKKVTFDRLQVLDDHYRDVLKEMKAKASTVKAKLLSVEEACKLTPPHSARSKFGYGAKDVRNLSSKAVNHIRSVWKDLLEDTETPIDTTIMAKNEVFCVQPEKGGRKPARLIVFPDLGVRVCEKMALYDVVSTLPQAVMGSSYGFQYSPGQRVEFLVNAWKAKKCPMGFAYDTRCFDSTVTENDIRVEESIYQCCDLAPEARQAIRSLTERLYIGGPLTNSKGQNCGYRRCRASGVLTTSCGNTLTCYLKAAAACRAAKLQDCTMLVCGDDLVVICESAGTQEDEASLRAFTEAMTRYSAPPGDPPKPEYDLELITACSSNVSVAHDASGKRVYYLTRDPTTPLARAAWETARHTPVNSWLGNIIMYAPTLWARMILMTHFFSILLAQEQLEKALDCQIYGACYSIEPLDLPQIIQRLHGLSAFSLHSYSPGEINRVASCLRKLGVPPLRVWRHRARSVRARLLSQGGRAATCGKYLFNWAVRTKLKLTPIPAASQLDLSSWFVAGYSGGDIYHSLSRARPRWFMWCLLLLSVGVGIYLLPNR
T1 sequence (Q9WMX2 2420-3010 C2735Y): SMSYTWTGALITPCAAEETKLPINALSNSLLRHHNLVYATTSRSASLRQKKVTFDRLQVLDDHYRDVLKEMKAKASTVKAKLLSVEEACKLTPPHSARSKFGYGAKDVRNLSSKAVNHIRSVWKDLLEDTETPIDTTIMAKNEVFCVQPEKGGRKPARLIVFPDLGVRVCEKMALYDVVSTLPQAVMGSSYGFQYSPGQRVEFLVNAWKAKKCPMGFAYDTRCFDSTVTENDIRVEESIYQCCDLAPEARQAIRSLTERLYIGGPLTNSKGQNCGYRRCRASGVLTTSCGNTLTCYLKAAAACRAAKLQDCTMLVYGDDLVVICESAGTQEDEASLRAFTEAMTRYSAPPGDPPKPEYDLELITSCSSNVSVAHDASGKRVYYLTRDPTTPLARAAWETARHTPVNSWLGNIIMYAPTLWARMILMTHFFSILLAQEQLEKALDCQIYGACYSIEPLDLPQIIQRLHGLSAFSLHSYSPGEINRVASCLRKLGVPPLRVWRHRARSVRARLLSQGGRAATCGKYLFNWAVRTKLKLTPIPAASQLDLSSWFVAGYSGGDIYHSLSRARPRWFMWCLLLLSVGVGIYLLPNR

## CNC(=O)c1c(-c2ccc(F)cc2)oc2cc3c(cc12)[C@H](C)CCCN3S(C)(=O)=O (single isomer, unassigned) [Compound B15]
[1]; [6]
  EC50: 5.5 nM
[2]
  Inhibiton of HCV NS5B C316Y mutant: †††
[3]
  Inhibiton of HCV NS5B S365A mutant: †††

## CNC(=O)c1c(-c2ccc(Oc3ccc(F)cc3)cc2)oc2cc3c(cc12)[C@H](C)OC(C)(C)CN3S(C)(=O)=O (single isomer, unassigned) [Compound B176]
[2]
  EC50: 200 to 1000 nM
[3]
  EC50: 200 to 1000 nM

## CNC(=O)c1c(-c2ccc(F)cc2)oc2cc3c(cc12)[C@H](C)N(C)C(=O)CN3S(C)(=O)=O (single isomer, unassigned) [Compound B179]
[3]
  EC50: 200 to 1000 nM

## CNC(=O)c1c(-c2ccc(F)cc2)oc2cc3c(cc12)[C@H](C)OC(C)(C)CN3S(C)(=O)=O (single isomer, unassigned) [Compound B184]
[2]
  EC50: > 1000 nM
[3]
  EC50: 200 to 1000 nM

## CNC(=O)c1c(-c2ccc(Oc3ccc(F)cc3)cc2)oc2cc3c(cc12)[C@H](C)OC1(CC1)CN3S(C)(=O)=O (single isomer, unassigned) [Compound B187]
[2]
  EC50: > 1000 nM
[3]
  EC50: > 1000 nM

## CNC(=O)c1c(-c2ccc(F)cc2)oc2cc3c(cc12)[C@H](C)OC1(CC1)CN3S(C)(=O)=O (single isomer, unassigned) [Compound B193]
[2]
  EC50: 200 to 1000 nM
[3]
  EC50: 200 to 1000 nM

## CNC(=O)c1c(-c2ccc(F)cc2)oc2cc3c(cc12)C=CCCN3S(C)(=O)=O [Compound B12]
[4]
  EC50: 100 to 1000 nM

## CS(=O)(=O)N1CCCCc2cc3c(C(N)=O)c(-c4ccc(F)cc4)oc3cc21 [Compound B13]
[4]
  EC50: > 1000 nM

## CN(C)C(=O)c1c(-c2ccc(F)cc2)oc2cc3c(cc12)CCCCN3S(C)(=O)=O [Compound B14]
[4]
  EC50: > 1000 nM

## CS(=O)(=O)N1CCCCc2cc3c(C(=O)NC4CC4)c(-c4ccc(F)cc4)oc3cc21 [Compound B41]
[4]
  EC50: > 1000 nM

## CN(C)CCNC(=O)c1c(-c2ccc(F)cc2)oc2cc3c(cc12)CCCCN3S(C)(=O)=O [Compound B42]
[4]
  EC50: > 1000 nM

## CS(=O)(=O)N1CCCCc2cc3c(C(=O)NCC#N)c(-c4ccc(F)cc4)oc3cc21 [Compound B43]
[4]
  EC50: > 1000 nM

## CNC(=O)c1c(-c2ccc(F)cc2)oc2cc3c(cc12)[C@@H](C)OCCN3S(C)(=O)=O [Compound B44]
[4]
  EC50: 100 to 1000 nM

## CNC(=O)c1c(-c2ccc(F)cc2)oc2cc3c(cc12)[C@H](C)OCCN3S(C)(=O)=O [Compound B45]
[1]; [6]
  EC50: 3 nM
[2]
  Inhibiton of HCV NS5B C316Y mutant: †††
[3]
  Inhibiton of HCV NS5B S365A mutant: †††

## C=C1CCCN(S(C)(=O)=O)c2cc3nc(-c4ccc(F)cc4)c(C(=O)NC)n3cc21 [Compound B61]
[4]
  EC50: > 1000 nM

## CNC(=O)c1c(-c2ccc(F)cc2)nc2cc3c(cn12)C(C)=CCCN3S(C)(=O)=O [Compound B62]
[4]
  EC50: > 1000 nM

## CS(=O)(=O)N1CCCCc2cc3c(-c4ncc[nH]4)c(-c4ccc(F)cc4)oc3cc21 [Compound B67]
[3]
  EC50: 200 to 1000 nM

## C=C1CCCCN(S(C)(=O)=O)c2cc3oc(-c4ccc(F)cc4)c(C(=O)NC)c3cc21 [Compound B75]
[4]
  EC50: 100 to 1000 nM

## CNC(=O)c1c(-c2ccc(F)cc2)oc2cc3c(cc12)/C=C\CCCN3S(C)(=O)=O [Compound B114]
[5]
  EC50: 100 to 1000 nM

## CNC(=O)c1c(-c2ccc(F)cc2)oc2cc3c(cc12)C(C)N(CCO)CCN3S(C)(=O)=O (stereo not drawn) [Compound B145]
[3]
  EC50: 200 to 1000 nM

## CC1c2cc3c(-c4ncc[nH]4)c(-c4ccc(F)cc4)oc3cc2N(S(C)(=O)=O)CCN1C (stereo not drawn) [Compound B171]
[3]
  EC50: 200 to 1000 nM

## CC1OCCN(S(C)(=O)=O)c2cc3oc(-c4ccc(F)cc4)c(-c4ncc[nH]4)c3cc21 (stereo not drawn) [Compound B197]
[3]
  EC50: 200 to 1000 nM

## CNC(=O)c1c(-c2ccc(F)cc2)oc2cc3c(cc12)[C@H](C)O[C@H](COC(=O)[C@@H](N)Cc1ccccc1)CN3S(C)(=O)=O [Compound B278]
[1]; [7]
  EC50: ≤ 10 nM
[1]; [8]
  EC50: < 10 nM

## CNC(=O)c1c(-c2ccc(F)cc2)oc2cc3c(cc12)[C@H](C)O[C@H](COC[C@H](O)CO)CN3S(C)(=O)=O [Compound B279]
[1]; [7]
  EC50: 10 to 100 nM
[1]; [8]
  EC50: 10 to 100 nM

## CNC(=O)c1c(-c2ccc(F)cc2)oc2cc3c(cc12)[C@H](C)O[C@H](COC(=O)[C@@H](N)[C@@H](C)O)CN3S(C)(=O)=O [Compound B280]
[1]; [7]
  EC50: ≤ 10 nM
[1]; [8]
  EC50: < 10 nM

## CNC(=O)c1c(-c2ccc(F)cc2)oc2cc3c(cc12)[C@H](C)O[C@H](COC(=O)[C@@H](N)CO)CN3S(C)(=O)=O [Compound B281]
[1]; [7]
  EC50: ≤ 10 nM
[1]; [8]
  EC50: < 10 nM

## CNC(=O)c1c(-c2ccc(F)cc2)oc2cc3c(cc12)[C@H](C)O[C@H](COC(=O)[C@H](N)C(C)C)CN3S(C)(=O)=O [Compound B282]
[1]; [7]
  EC50: ≤ 10 nM
[1]; [8]
  EC50: < 10 nM

## CN/C(=N\O)c1c(-c2ccc(F)cc2)oc2cc3c(cc12)[C@H](C)O[C@H](CS(C)(=O)=O)CN3S(C)(=O)=O [Compound B283]
[1]; [8]
  EC50: 100 to 1000 nM

## CN/C(=N\OC)c1c(-c2ccc(F)cc2)oc2cc3c(cc12)[C@H](C)O[C@H](CS(C)(=O)=O)CN3S(C)(=O)=O [Compound B284]
[1]; [8]
  EC50: 100 to 1000 nM

## CNC(=O)c1c(-c2ccc(F)cc2)oc2cc3c(cc12)[C@H](C)O[C@H](CO[C@H]1CCOC1)CN3S(C)(=O)=O [Compound B285]
[1]; [7]
  EC50: ≤ 10 nM
[1]; [8]
  EC50: < 10 nM

## CNC(=O)c1c(-c2ccc(F)cc2)oc2cc3c(cc12)[C@H](C)O[C@H](CO[C@@H]1CCOC1)CN3S(C)(=O)=O [Compound B286]
[1]; [7]
  EC50: ≤ 10 nM
[1]; [8]
  EC50: < 10 nM

## CNC(=O)c1c(-c2ccc(F)cc2)oc2cc3c(cc12)[C@H](C)O[C@@H](CS(C)(=O)=O)CN3S(C)(=O)=O [Compound B287]
[1]; [7]
  EC50: 10 to 100 nM
[1]; [8]
  EC50: 10 to 100 nM
